Data reported in US5545629A, “5-ethoxy-2'-deoxyuridines” (Montefiore Medical Center, priority 1994, dated 1996).
Read-outs that look alike come from different tables or passages of the source.

Legend:
HT-29 cells = experiment: growth inhibition of HT-29 cells, 6 days, sulforhodamine B staining; type: cell-based, human; details: for IC50: HT-29, 6 days, sulforhodamine B
Experimental: The growth inhibitory effect of 5-ethoxy-2'-deoxyuridine was compared with other analogous 5-substituted-2'-deoxyuridine compounds by determining the IC50 of each compound in an assay which measured the growth inhibition of HT-29 cells. The HT-29 cells were placed in 96 well plates (2×10^4 cells per well) in RPMI 1640 with 10% added fetal bovine serum. After allowing the cells to attach overnight, several concentrations of the test compounds were added. After 6 days, cell numbers were quantitated by staining with sulforhodamine B (Skehan et al., J. Natl. Canc. Inst, 82, 1107-1112, 1990).

[1] = test system: HT-29 human carcinoma cells; experiment: in vitro clonogenic assay (cloning efficiency) with HT-29 cells, 72 h drug exposure; type: cell-based; details: for IC50: read-out: IC50 for 5-fluorouracil (50% reduction of cloning efficiency)
Experimental: For assessment of the antitumor activity of 5-ethoxy-2'-deoxyuridine, an in vitro clonogenic assay was used. The assay was based on a modification of procedures first described by Puck and Marcus (Proc. Natl. Acad. Sci. (USA) 41:432-437, 1955). […] 3:225-231, 1991; A. F. Sobrero et al., J. Natl. Cancer Inst. 85:1937-1944, 1993).
HT-29 human carcinoma cells (ATCC No. HTB-38) were maintained in RPMI 1640 with 10% v/v fetal bovine serum (GIBCO) in a humidified, 5% CO2 atmosphere at 37° C. Cells were plated in 24 well plates (150 cells per well) in RPMI 1640 medium with 10% v/v dialyzed fetal bovine serum. After allowing cell attachment to proceed overnight, combinations of interferon-α (500 units/ml; Roferon-A, Roche Labs.), 5-ethoxy-2'-deoxyuridine (150 μM), in the presence of increasing concentrations of 5-fluorouracil (as specified in the Table) were added. The various agents were diluted in phosphate-buffered saline, and control wells received vehicle alone. After 72 hours, drug containing medium was removed and replaced with RPMI 1640 with 10% v/v fetal bovine serum. Cell colonies were allowed to grow for an additional 7-10 days, at which point they were stained and counted. […] Data are means of at least 3 determinations. The IC50 values for 5-fluorouracil were calculated graphically by determining the concentration of 5-fluorouracil that reduced cloning efficiency by 50% from the cloning efficiency value measured in the absence of 5-fluorouracil.

Molecule: 5-propynyloxy-2'-deoxyuridine
- IC50 (HT-29 cells): > 3000 µM

Molecule: O=c1[nH]cc(F)c(=O)[nH]1 [5-FU, 5-fluorouracil]
- Cloning Efficiency (% of control) ([1]; 5-FU 0.025 μM with 5-ETH 150 μM + IFN 500 u/ml, 4320 min): 89 % of control
- Cloning Efficiency (% of control) ([1]; 5-FU 0.05 μM with 5-ETH 150 μM + IFN 500 u/ml, 4320 min): 81 % of control
- Cloning Efficiency (% of control) ([1]; 5-FU 0.05 μM with 5-ETH 150 μM, 4320 min): 81 % of control
- Cloning Efficiency (% of control) ([1]; 5-FU 0.10 μM with 5-ETH 150 μM + IFN 500 u/ml, 4320 min): 38 % of control
- Cloning Efficiency (% of control) ([1]; 5-FU 0.10 μM with 5-ETH 150 μM, 4320 min): 80 % of control
- Cloning Efficiency (% of control) ([1]; 5-FU 0.15 μM with 5-ETH 150 μM + IFN 500 u/ml, 4320 min): 9 % of control
- Cloning Efficiency (% of control) ([1]; 5-FU 0.25 μM with 5-ETH 150 μM + IFN 500 u/ml, 4320 min): 0 % of control
- Cloning Efficiency (% of control) ([1]; 5-FU 0.25 μM with 5-ETH 150 μM, 4320 min): 60 % of control
- Cloning Efficiency (% of control) ([1]; 5-FU 0.25 μM with IFN 500 u/ml, 4320 min): 97 % of control
- Cloning Efficiency (% of control) ([1]; 5-FU 0.50 μM with 5-ETH 150 μM, 4320 min): 38 % of control
- Cloning Efficiency (% of control) ([1]; 5-FU 0.50 μM with IFN 500 u/ml, 4320 min): 83 % of control
- Cloning Efficiency (% of control) ([1]; 5-FU 1.0 μM with 5-ETH 150 μM, 4320 min): 13 % of control
- Cloning Efficiency (% of control) ([1]; 5-FU 1.0 μM with IFN 500 u/ml, 4320 min): 56 % of control
- Cloning Efficiency (% of control) ([1]; 5-FU 1.5 μM with 5-ETH 150 μM, 4320 min): 4 % of control
- Cloning Efficiency (% of control) ([1]; 5-FU 1.5 μM with IFN 500 u/ml, 4320 min): 18 % of control
- Cloning Efficiency (% of control) ([1]; 5-FU 2.0 μM with IFN 500 u/ml, 4320 min): 8 % of control
- Cloning Efficiency (% of control) ([1]; 5-FU 3.0 μM with IFN 500 u/ml): 1 % of control
- IC50 ([1]; Homo sapiens, HT-29, 72 h, 5-FU alone (CONT, PBS)): 2 µM
- IC50 ([1]; Homo sapiens, HT-29, 72 h, 5-FU with 5-ETH 150 μM + IFN 500 u/ml): 0.08 µM
- IC50 ([1]; Homo sapiens, HT-29, 72 h, 5-FU with 5-ETH 150 μM): 0.35 µM
- IC50 ([1]; Homo sapiens, HT-29, 72 h, 5-FU with IFN 500 u/ml): 1.1 µM
- activity at 0.25 µM ([1]; Homo sapiens, HT-29, 72 h, 5-FU 0.25 μM alone (CONT, PBS), read-out: Cloning Efficiency (% of control)): 104%
- activity at 0.5 µM ([1]; Homo sapiens, HT-29, 72 h, 5-FU 0.50 μM alone (CONT, PBS), read-out: Cloning Efficiency (% of control)): 93%
- activity at 1 µM ([1]; Homo sapiens, HT-29, 72 h, 5-FU 1.0 μM alone (CONT, PBS), read-out: Cloning Efficiency (% of control)): 87%
- activity at 1.5 µM ([1]; Homo sapiens, HT-29, 72 h, 5-FU 1.5 μM alone (CONT, PBS), read-out: Cloning Efficiency (% of control)): 60%
- activity at 2 µM ([1]; Homo sapiens, HT-29, 72 h, 5-FU 2.0 μM alone (CONT, PBS), read-out: Cloning Efficiency (% of control)): 55%
- activity at 3 µM ([1]; Homo sapiens, HT-29, 72 h, 5-FU 3.0 μM alone (CONT, PBS), read-out: Cloning Efficiency (% of control)): 27%
- activity at 4 µM ([1]; Homo sapiens, HT-29, 72 h, 5-FU 4.0 μM alone (CONT, PBS), read-out: Cloning Efficiency (% of control)): 5%

Molecule: CCOc1cn([C@H]2C[C@H](O)[C@@H](CO)O2)c(=O)[nH]c1=O [5-ethoxy-2'-deoxyuridine]
- toxicity relative to the ethyl analog (HT-29 cells; HT-29 cytotoxicity, fraction of the toxicity of the ethyl analog): about 1/300
- toxicity relative to the methyloxy analog (HT-29 cells; HT-29 cytotoxicity, fraction of the toxicity of the methyloxy analog): about 1/27
- toxicity relative to the propyloxy analog (HT-29 cells; HT-29 cytotoxicity, fraction of the toxicity of the propyloxy analog): about 1/2
- IC50 (HT-29 cells; Homo sapiens, 144 h): 750 µM
- toxicity compared with many other prior art 5-substituted-2'-deoxyuridines that have been tested (HT-29 cells; statement in words): less toxic
- activity at 150 µM ([1]; Homo sapiens, HT-29, 72 h, 5-ETH 150 μM alone, no 5-FU (0), read-out: Cloning Efficiency (% of control)): 89%

Molecule: CCc1cn([C@H]2C[C@H](O)[C@@H](CO)O2)c(=O)[nH]c1=O [5-ethyl-2'-deoxyuridine]
- IC50 (HT-29 cells; Homo sapiens, 144 h): 2.5 µM

Molecule: COc1cn([C@H]2C[C@H](O)[C@@H](CO)O2)c(=O)[nH]c1=O [5-methoxy-21-deoxyuridine]
- IC50 (HT-29 cells; Homo sapiens, 144 h): 28 µM

Molecule: CCCOc1cn([C@H]2C[C@H](O)[C@@H](CO)O2)c(=O)[nH]c1=O [5-propyloxy-2'-deoxyuridine]
- IC50 (HT-29 cells; Homo sapiens, 144 h): 325 µM
